# Key:
# [1] = target: T1, NKTR (Homo sapiens, UniProt P30414); assay: chymotrypsin coupled PPIase assay, NKTR inhibition; type: biochemical; details: result in words
# T1 sequence (P30414 1-1462): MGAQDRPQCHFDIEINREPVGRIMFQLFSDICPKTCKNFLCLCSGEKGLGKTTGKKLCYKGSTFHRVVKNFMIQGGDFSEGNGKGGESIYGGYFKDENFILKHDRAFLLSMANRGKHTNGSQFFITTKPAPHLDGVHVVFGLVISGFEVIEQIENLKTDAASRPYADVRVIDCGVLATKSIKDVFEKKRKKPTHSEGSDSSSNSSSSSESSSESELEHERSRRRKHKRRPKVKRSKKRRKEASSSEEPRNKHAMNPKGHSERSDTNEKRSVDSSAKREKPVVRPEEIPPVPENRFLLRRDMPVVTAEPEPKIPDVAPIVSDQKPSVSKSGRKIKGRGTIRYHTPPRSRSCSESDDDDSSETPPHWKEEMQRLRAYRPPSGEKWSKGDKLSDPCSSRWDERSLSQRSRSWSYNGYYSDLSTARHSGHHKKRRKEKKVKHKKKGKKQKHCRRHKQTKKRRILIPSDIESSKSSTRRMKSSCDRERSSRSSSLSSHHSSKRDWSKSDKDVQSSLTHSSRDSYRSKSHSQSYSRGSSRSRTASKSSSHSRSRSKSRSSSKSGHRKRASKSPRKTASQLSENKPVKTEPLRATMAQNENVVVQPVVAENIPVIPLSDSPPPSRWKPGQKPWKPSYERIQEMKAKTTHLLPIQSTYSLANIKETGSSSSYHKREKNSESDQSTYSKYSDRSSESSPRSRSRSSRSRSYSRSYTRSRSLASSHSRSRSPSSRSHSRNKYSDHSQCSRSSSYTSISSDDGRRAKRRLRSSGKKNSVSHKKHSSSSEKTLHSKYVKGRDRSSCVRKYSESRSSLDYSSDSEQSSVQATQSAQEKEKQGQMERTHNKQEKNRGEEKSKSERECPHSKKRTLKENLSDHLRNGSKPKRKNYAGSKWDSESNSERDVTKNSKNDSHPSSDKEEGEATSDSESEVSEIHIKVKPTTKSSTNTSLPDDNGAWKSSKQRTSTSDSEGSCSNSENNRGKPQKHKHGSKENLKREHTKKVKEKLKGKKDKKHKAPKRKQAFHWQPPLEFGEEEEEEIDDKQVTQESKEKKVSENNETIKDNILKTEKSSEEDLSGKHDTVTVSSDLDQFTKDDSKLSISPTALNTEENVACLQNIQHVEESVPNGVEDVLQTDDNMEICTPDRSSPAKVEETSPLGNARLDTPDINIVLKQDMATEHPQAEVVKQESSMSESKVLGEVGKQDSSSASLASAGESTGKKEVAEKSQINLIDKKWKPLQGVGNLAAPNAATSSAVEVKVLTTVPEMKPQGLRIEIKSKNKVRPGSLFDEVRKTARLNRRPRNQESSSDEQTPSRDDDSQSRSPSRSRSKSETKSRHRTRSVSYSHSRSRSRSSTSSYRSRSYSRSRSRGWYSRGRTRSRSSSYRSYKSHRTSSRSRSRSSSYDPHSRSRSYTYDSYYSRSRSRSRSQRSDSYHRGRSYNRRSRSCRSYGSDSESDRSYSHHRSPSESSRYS
# Method: (§1) Following the synthesis of the indicated library members, in vitro inhibition (IC50) assays of these hits were conducted to obtain IC50 inhibitory data. For the IC50 assays, a chymotrypsin coupled PPIase assay using Suc-AAPF-AMC as the peptide substrate was used, whereby isomerization of a peptide substrate Suc-AAPF-AMC from the cis to trans conformation allowed for proteolysis via excess a-chymotrypsin, releasing the C-terminal coumarin fluorophore. […] Other non-inhibitor library members were also checked for binding via SPR, but produced the same profile as the prolyl isomerase assay.
# (§2) Subsequently, to determine if the compounds could both access the S2 pocket and display CypD specificity, JOMBtrans and compound 49 were screened against the 10 other cyclophilins with reported prolyl isomerase activity. […] Co-crystal structures of JOMBtrans and 49 were solved with CypD. […] Three further H-bonds with the macrocycle's backbone and CypD were observed along with a cation-n interaction. […] The benzyl group on the piperidine ring altered the conformation of the macrocycle to open up two new hydrogen bonding interactions with CypD. […] This improvement in specificity compared to JOMBtrans signified that more CypD specific compounds can be garnered by derivatization into the S2 pocket.
# [2] = target: T2, CypG (Homo sapiens, UniProt Q13427); assay: chymotrypsin coupled PPIase assay, CypG inhibition; type: biochemical; details: result in words
# T2 sequence (Q13427 1-754): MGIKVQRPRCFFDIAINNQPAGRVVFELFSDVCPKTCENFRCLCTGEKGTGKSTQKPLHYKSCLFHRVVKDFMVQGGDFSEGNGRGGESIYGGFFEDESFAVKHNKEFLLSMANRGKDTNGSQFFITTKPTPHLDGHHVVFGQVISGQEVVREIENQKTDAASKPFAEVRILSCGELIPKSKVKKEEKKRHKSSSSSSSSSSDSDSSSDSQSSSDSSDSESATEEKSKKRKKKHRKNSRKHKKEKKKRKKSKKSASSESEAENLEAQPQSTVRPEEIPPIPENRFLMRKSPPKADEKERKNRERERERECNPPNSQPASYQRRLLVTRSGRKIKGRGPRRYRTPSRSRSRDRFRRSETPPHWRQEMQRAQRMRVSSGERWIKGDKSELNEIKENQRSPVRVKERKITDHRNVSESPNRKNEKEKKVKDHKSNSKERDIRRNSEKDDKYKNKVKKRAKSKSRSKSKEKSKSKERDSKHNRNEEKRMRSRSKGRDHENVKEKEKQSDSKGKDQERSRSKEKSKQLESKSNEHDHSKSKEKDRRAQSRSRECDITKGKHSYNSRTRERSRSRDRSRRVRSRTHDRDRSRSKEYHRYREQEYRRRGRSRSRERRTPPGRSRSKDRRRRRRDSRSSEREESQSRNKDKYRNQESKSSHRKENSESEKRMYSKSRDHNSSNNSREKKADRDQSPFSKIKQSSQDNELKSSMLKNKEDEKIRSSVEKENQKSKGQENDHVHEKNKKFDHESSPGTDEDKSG
# Method: as §1, §2
smiles,measurement,setting,value
NCCOCCNC(=O)[C@@H]1CCNC(=O)/C=C/C(=O)N2CCC[C@H](C2)C(=O)N[C@@H](Cc2ccc(C(=O)c3ccccc3)cc2)C(=O)NCc2ccccc2CC(=O)N1 [compound 27],inhibition of NKTR,[1],Almost complete ablation of inhibition profiles
same,inhibition of CypG,[2],Almost complete ablation of inhibition profiles
